{"source": "ChEMBL document CHEMBL4411276", "about": "“Chemistry-oriented synthesis (ChOS) and target deconvolution on neuroprotective effect of a novel scaffold, oxaza spiroquinone” (Eur J Med Chem, 2019)", "key": {"[1]": {"molecular_target": "Serine/threonine-protein kinase 24 (Homo sapiens) (UniProt Q9Y6E0)", "assay": "Inhibition of human MST3 assessed as enzyme activity at 30 uM using MBP as substrate by [gamma-33P]-ATP assay relative to control", "design": "scale not given: the % may be the effect or the level left"}, "[2]": {"molecular_target": "Cyclin-dependent kinase 1/cyclin B1 (Homo sapiens) (UniProt P06493+P14635)", "assay": "Inhibition of human CDK1/cyclinB assessed as enzyme activity at 30 uM using Histone H1 as substrate by [gamma-33P]-ATP assay relative to control", "format": "protein-complex assay", "design": "scale not given: the % may be the effect or the level left"}, "[3]": {"molecular_target": "Serine/threonine-protein kinase N2 (Homo sapiens) (UniProt Q16513)", "assay": "Inhibition of human PKN2 assessed as enzyme activity at 30 uM using KKLNRTLSVA as substrate by [gamma-33P]-ATP assay relative to control", "design": "scale not given: the % may be the effect or the level left"}, "[4]": {"molecular_target": "CDK2/Cyclin O (Homo sapiens) (UniProt P24941+P22674)", "assay": "Inhibition of human CDK2/cyclin-O assessed as enzyme activity at 30 uM using histone H1 as substrate by [gamma-33P]-ATP assay relative to control", "format": "protein-complex assay", "design": "scale not given: the % may be the effect or the level left"}, "[5]": {"molecular_target": "T1, Dual serine/threonine and tyrosine protein kinase (Homo sapiens) (UniProt Q6XUX3)", "T1 sequence (whole entry)": "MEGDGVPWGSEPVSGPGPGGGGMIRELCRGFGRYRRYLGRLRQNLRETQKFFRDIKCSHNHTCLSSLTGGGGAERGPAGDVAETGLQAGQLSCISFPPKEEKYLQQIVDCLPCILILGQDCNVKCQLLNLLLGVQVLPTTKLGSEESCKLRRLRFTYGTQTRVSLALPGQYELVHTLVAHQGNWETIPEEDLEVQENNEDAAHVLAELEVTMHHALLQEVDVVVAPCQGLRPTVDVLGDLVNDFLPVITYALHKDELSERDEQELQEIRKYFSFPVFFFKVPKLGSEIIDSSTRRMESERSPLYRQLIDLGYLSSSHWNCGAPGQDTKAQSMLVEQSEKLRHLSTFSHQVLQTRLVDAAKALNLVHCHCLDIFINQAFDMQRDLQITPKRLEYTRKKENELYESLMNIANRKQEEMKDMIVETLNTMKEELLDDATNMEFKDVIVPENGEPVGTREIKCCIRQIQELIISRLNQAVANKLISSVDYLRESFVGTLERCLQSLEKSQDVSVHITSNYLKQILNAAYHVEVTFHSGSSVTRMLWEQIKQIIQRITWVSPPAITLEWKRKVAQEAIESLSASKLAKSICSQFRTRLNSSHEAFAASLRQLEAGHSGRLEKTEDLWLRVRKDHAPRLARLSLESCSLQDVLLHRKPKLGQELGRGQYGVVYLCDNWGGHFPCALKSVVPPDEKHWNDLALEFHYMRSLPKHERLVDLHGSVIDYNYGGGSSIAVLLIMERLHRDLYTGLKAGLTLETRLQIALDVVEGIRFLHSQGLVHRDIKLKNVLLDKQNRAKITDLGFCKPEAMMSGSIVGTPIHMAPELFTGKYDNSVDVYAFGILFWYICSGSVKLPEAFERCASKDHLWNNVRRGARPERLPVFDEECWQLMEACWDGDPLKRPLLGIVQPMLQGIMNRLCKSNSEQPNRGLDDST", "assay": "Inhibition of human RIPK5 assessed as enzyme activity at 30 uM using MBP as substrate by [gamma-33P]-ATP assay relative to control", "design": "scale not given: the % may be the effect or the level left"}, "Mus musculus": {"test_system": "Mus musculus", "assay": "Cognition enhancing effect in ICR mouse model of scopolamine-induced memory impairment assessed as spontaneous alteration at 10 mg/kg by Y-maze test (reference value: 45.14%)", "format": "functional"}, "BV-2": {"test_system": "BV-2", "assay": "Anti-inflammatory activity in mouse BV2 cells assessed as reduction in LPS-induced NO production pre-treated before LPS stimulation for 24 hrs by Griess reagent-based assay", "format": "functional, cell-based"}, "[6]": {"assay": "Cytotoxicity against LPS-stimulated mouse BV2 cells assessed as cell survival after 24 hrs by MTT assay relative to control", "format": "cell-based, BV-2", "design": "concentration or dose not given beside the values", "conditions": "read-out: Survival"}, "[7]": {"molecular_target": "CDK3/Cyclin E (Homo sapiens) (UniProt P24864+Q00526)", "assay": "Inhibition of human CDK3/cyclin-E assessed as enzyme activity at 30 uM using histone H1 as substrate by [gamma-33P]-ATP assay relative to control", "format": "protein-complex assay", "design": "scale not given: the % may be the effect or the level left"}, "[8]": {"assay": "Cytotoxicity against mouse BV2 cells assessed as cell survival after 24 hrs by MTT assay relative to control", "format": "cell-based, BV-2", "design": "concentration or dose not given beside the values", "conditions": "read-out: Survival"}, "[9]": {"molecular_target": "Mitogen-activated protein kinase 10 (Homo sapiens) (UniProt P53779)", "assay": "Inhibition of human JNK3 assessed as enzyme activity at 30 uM using ATF2 as substrate by [gamma-33P]-ATP assay relative to control", "design": "scale not given: the % may be the effect or the level left"}, "[10]": {"molecular_target": "T2, NUAK family SNF1-like kinase 1 (Homo sapiens) (UniProt O60285)", "T2 sequence (whole entry)": "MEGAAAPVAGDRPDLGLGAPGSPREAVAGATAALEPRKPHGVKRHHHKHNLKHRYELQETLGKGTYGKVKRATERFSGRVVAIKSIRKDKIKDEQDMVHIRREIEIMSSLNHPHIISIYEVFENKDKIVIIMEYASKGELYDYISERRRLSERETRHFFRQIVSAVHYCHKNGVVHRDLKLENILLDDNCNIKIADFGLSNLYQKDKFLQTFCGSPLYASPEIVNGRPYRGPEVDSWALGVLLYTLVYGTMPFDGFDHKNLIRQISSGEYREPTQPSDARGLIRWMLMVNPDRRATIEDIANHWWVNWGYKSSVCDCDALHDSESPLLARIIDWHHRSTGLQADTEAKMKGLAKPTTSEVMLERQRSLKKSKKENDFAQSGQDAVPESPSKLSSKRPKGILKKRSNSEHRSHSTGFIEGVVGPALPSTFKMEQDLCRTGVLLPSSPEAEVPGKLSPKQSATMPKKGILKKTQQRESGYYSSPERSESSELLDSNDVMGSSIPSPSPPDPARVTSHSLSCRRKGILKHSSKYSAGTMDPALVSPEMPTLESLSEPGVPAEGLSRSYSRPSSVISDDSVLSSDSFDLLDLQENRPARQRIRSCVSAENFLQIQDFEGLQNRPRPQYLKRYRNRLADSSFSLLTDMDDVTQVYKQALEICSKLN", "assay": "Inhibition of human ARK5 assessed as enzyme activity at 30 uM using KKKVSRSGLYRSPSMPENLNRPR as substrate by [gamma-33P]-ATP assay relative to control", "design": "scale not given: the % may be the effect or the level left"}, "[11]": {"molecular_target": "Protein kinase C alpha type (Homo sapiens) (UniProt P17252)", "assay": "Inhibition of human PKCalpha assessed as enzyme activity at 30 uM using ERMRPRKRQGSVRRRV as substrate by [gamma-33P]-ATP assay relative to control", "design": "scale not given: the % may be the effect or the level left"}}, "data": [{"smiles": "O=C1C=CC2(C=C1)OCC(Cc1cc(C(F)(F)F)cc(C(F)(F)F)c1)C(=O)N2c1ccccc1", "note": "(stereo not drawn)", "values": [{"measurement": "Activity", "setting": "[1]", "result": "57.6 to 58.2", "unit": "%"}, {"measurement": "Activity", "setting": "[2]", "result": "45.4 to 46.5", "unit": "%"}, {"measurement": "Activity", "setting": "[3]", "result": "62.2 to 64.8", "unit": "%"}, {"measurement": "Activity", "setting": "[4]", "result": "42.3 to 43.8", "unit": "%"}, {"measurement": "Activity", "setting": "[5]", "result": "58.6 to 59.9", "unit": "%"}, {"measurement": "Activity", "setting": "Mus musculus", "result": 59.62, "unit": "%"}, {"measurement": "IC50", "setting": "BV-2", "result": 70, "unit": "nM"}, {"measurement": "viability at 24 h", "setting": "[6]", "result": 92.1, "unit": "%"}, {"measurement": "Activity", "setting": "[7]", "result": "58.5 to 60.2", "unit": "%"}, {"measurement": "viability at 24 h", "setting": "[8]", "result": 85.4, "unit": "%"}, {"measurement": "Activity", "setting": "[9]", "result": "70.6 to 73.4", "unit": "%"}, {"measurement": "Activity", "setting": "[10]", "result": "70.7 to 70.8", "unit": "%"}, {"measurement": "Activity", "setting": "[11]", "result": "44.8 to 46.5", "unit": "%"}]}]}
